Measurements as given in patent US20240109930A1, “TRIAZOLYL-METHYL SUBSTITUTED ALPHA-D-GALACTOPYRANOSIDE DERIVATIVES” (Idorsia Pharmaceuticals Ltd, priority 2021, published 2024).

Columns and labels:
human Gal-1 (hGal-1) = human Gal-1 (hGal-1) (Homo sapiens, UniProt P09382, C131S/C17S/C43S/C61S/C89S); test: Competitive binding assay: biotinylated hGal-1 binding to microplate-adsorbed asialofetuin (ASF); details: IC50 values from several measurements given as geomean
Summary of the method: (§1)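 Biotinylated hGal-3 or hGal-1 (preferably cysteine-free Cys→Ser mutant), 300–1000 ng/mL, competes with compound for ASF-coated wells for 3 h at 4 °C. Bound lectin detected with streptavidin-peroxidase (80 ng/mL, 1 h, 4 °C) and ABTS by absorbance; IC50 reported as geomean of several runs.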

human Gal-3 (hGal-3) = human Gal-3 (hGal-3) (Homo sapiens (Human), UniProt P17931); test: Competitive binding assay: biotinylated hGal-3 binding to microplate-adsorbed asialofetuin (ASF); details: IC50 values from several measurements given as geomean
Summary of the method: as §1

Chain of human Gal-3 (hGal-3) (P17931 whole entry): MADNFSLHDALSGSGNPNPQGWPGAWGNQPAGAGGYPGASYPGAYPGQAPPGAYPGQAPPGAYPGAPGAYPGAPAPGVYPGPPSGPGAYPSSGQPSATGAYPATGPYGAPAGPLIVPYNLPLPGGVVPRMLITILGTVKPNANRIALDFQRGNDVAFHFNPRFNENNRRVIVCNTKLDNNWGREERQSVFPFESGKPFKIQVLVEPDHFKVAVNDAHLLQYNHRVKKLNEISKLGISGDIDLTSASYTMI

IC50 (human Gal-1 (hGal-1))	IC50 (human Gal-3 (hGal-3))	SMILES
1740 nM	30 nM	CO[C@@H]1[C@@H](n2cc(-c3ccc(Br)c(F)c3F)nn2)[C@@H](O)[C@@H](CO)O[C@@H]1Cc1cn([C@@H]2CCCC2(F)F)nn1 [Example 4.1.64.A, (2R,3R,4S,5R,6R)-4-(4-(4-bromo-2,3-difluorophenyl)-1H-1,2,3-triazol-1-yl)-6-((1-((R)-2,2-difluorocyclopentyl)-1H-1,2,3-triazol-4-yl)methyl)-2-(hydroxymethyl)-5-methoxytetrahydro-2H-pyran-3-ol]
1810 nM	50 nM	CO[C@@H]1[C@@H](n2cc(-c3ccc(Br)c(F)c3F)nn2)[C@@H](O)[C@@H](CO)O[C@@H]1Cc1cn([C@H]2CCCC2(F)F)nn1 [Example 4.1.64.B, (2R,3R,4S,5R,6R)-4-(4-(4-bromo-2,3-difluorophenyl)-1H-1,2,3-triazol-1-yl)-6-((1-((S)-2,2-difluorocyclopentyl)-1H-1,2,3-triazol-4-yl)methyl)-2-(hydroxymethyl)-5-methoxytetrahydro-2H-pyran-3-ol]
